Data from ChEMBL document CHEMBL1131502, “Thiol-induced nitric oxide release from 3-halogeno-3,4-dihydrodiazete 1,2-dioxides” (J Med Chem, 1998).

Experiments:
[1] = apparent rate constant value of the compound; assay type: ADME
[2] = The compound was tested for the concentration to reduce the viability of bovine aortic endothelial cell by 50% within 24 hr after compound addition.; assay type: functional, cell-based; details: Bos taurus
Homo sapiens = organism: Homo sapiens; assay: The compound was tested for half-maximum inhibition of platelet aggregation; assay type: functional

SMILES: CC1(C)[N+]([O-])=[N+]([O-])C1(C)Br (stereo not drawn)
- rate constant app [1]: 0.052 M⁻¹ s⁻¹
- IC50 [2]: 1.4 mM
- IC50 (Homo sapiens): 10 µM

SMILES: CC12CCCCC1(Br)[N+]([O-])=[N+]2[O-] (stereo not drawn)
- rate constant app [1]: 0.072 M⁻¹ s⁻¹
- IC50 [2]: 0.23 mM
- IC50 (Homo sapiens): 1 µM

SMILES: CC12CCCCC1(Cl)[N+]([O-])=[N+]2[O-] (stereo not drawn)
- rate constant app [1]: 0.0033 M⁻¹ s⁻¹
- IC50 [2]: > 6 mM
